Like-named read-outs stand apart in the source and are kept apart here.
What was measured:
[1] = system: core body temperature in mice; assay: Core body temperature measurement; type: in vivo; conditions: mice, i.p., 60 min after injection
Protocol: Rectal temperature of mice (N = 8–10 per group) was measured 60 min after i.p. injection of the corresponding compound (see previous section “Head twitch response”). This time point was chosen according to the maximal effect observed in pilot experiments. A thermocouple probe (YS451, Panlab, Barcelona, Spain) connected to a digital thermometer (TMP812RS, Panlab, Barcelona, Spain) was inserted 2 cm into the rectum and steady temperature readout was obtained after 10 s of insertion.
(§1) Data were expressed as means±standard deviation (SD). Competition, release and functional assays, and substrate-induced current curves were plotted and fitted by non-linear regression to obtain the IC50, EC50, and Emax values. For behavioral studies, data were fitted by non-linear regression and pED50 and Emax values (with the corresponding 95% CI) were estimated by means of a software (GraphPad Prism 10) that further extrapolates the data. The Cheng-Prusoff equation was used to calculate Ki (affinity): Ki = […]/(1 + [radioligand-concentration/Kd]). HTR curves were fitted using a Gaussian equation as described. Data from batch release assays were statistically analyzed with a mixed-effects model, employing Šidák’s correction for multiple comparisons. Total release at each concentration and the behavioral experiments with the corresponding antagonists were statistically analyzed using one-way ANOVA, followed by Tukey’s post-hoc test. Molecular volume (van der Waals) was calculated using a grid approximation (spacing 0.75 Å). logP was calculated using Molinspiration Cheminformatics software. For in vivo studies, one-way ANOVA with Dunnet’s post-hoc test was used to compare all conditions to saline in dose-response experiments when data were normally distributed. Otherwise, a non-parametric test (Kruskall-Wallis with Dunn’s post-hoc test) was used. Alpha was set at 0.05. Outliers were excluded following ROUT’s method (Q = 0.1%). All statistical analyses and Pearson correlations were conducted using GraphPad Prism 10 software (GraphPad software, San Diego, CA, USA).

h5-HT2AR = biological target: T1, h5-HT2AR (Homo sapiens, UniProt P28223); type: binding; conditions: 1 nM [3H]ketanserin, N ≥ 3; read-out: 5-HT2AR Ki ± SD
T1 construct: purchased Perkin Elmer, Inc. (Waltham, MA, USA)
Protocol: (§2) Binding assays were performed as described previously. Briefly, membrane preparations expressing h5-HT1AR, h5-HT2AR or hSERT (see Supplementary Material) were incubated with radiolabeled selective ligands 0.4 nM [^3H]8-OH-DPAT, 1 nM [^3H]ketanserin or 3 nM [^3H]imipramine, respectively. The drugs were diluted in the corresponding binding buffer and tested at increasing concentrations in duplicate. Binding reactions were performed in tubes containing the drug dilutions; 25 μl of the corresponding radioligand; and the membranes (10 μg and 5 μg/500 μL for 5-HT1AR and 5-HT2AR, respectively, and 15 μg/100 μL for hSERT), all diluted in binding buffer. […] Incubation was performed for 1 h at 27 °C for 5-HT1A/2AR and 22 °C for hSERT, according to the manufacturer’s protocol (Perkin Elmer, Inc., Waltham, MA, USA) and previous studies - saturation and kinetic experiments, respectively. The binding reactions were stopped by rapid filtration through GF/B glass microfiber filters pre-soaked with 0.5% polyethyleneimine and washing with ice-cold wash buffer. The filters were placed into vials and scintillation cocktail was added. The trapped radioactivity was quantified. Specific binding was defined as the difference between total binding (binding buffer alone) and non-specific binding. Experiments were conducted per duplicate for at least three independent experiments.

[2] = system: head twitch response in mice; assay: Head twitch response (HTR); type: in vivo; conditions: mice, i.p.; for HTR Emax (95% CI): 10-min period
Protocol: HTR studies were adapted from. Mice (N = 8–10 per group) were injected intraperitoneally (i.p.) with saline or the appropriate tryptamine dose (0.3, 1, 3, 10, or 30 mg/kg) and placed into the observation arena (25 × 25 × 40 cm). A camera mounted above the observation cage recorded the mice for the next 10 min after the injection. Another batch of animals (N = 8–10) received subcutaneous injections of either saline or the respective antagonist (WAY100635 1 mg/kg for 5-HT1AR or ketanserin 1 mg/kg for 5-HT2AR). After a 10-min interval, the animals were i.p. injected with the corresponding tryptamine (10 mg/kg) and placed in the observation arena. Animal behavior was recorded for the next 10 min after the last injection, as mentioned before. Video recordings were examined by two blind observers blinded to the treatments, who assessed the number of head twitches, defined as a rapid rotational jerk of the head which is not contiguous with any grooming behavior [39].
as §1

SERT = biological target: T2, SERT (Homo sapiens, UniProt P31645); assay: Batch release of preloaded [3H]5-HT from HEK293 cells expressing SERT; type: cell-based; conditions: for 5-HT releasing activity: with or without monensin, pCA as positive control; for 5-HT release at SERT: with or without monensin 10 µM
T2 construct: YFP (yellow-fluorescent protein); expressed in transfected cells
Protocol: Batch release is a functional radiometric assay to assess transporter-mediated efflux. […] Subsequently, cells were washed three times with KHB and equilibrated for 10 min in KHB or KHB+monensin (10 µM). […] 10 µM pCA and 0.05 µM paroxetine were used as positive and negative controls, respectively. Liquid scintillation cocktail was added both to the wells containing cells (200 µL) and to the transferred supernatant (100 µL). Total radioactivity determined from/in the remaining lysate of the cells plus the transferred supernatant was set as 100%, and the radioactivity determined in each fraction was expressed as a percentage thereof. Assays were performed per duplicate for five independent experiments.

[3] = system: horizontal locomotor activity in mice; assay: Horizontal locomotor activity (HLA); type: in vivo; conditions: i.p., 30 min; for HLA (hypolocomotion) Emax (95% CI): total traveled distance
Protocol: The HLA test was carried out according to a previous study. The same animals (N = 8–10 per group) used for the assessment of HTR were recorded for 30 min in an observation arena, under low-light conditions with white noise. Video recordings were processed using a tracking software (Smart 3.0 Panlab, Barcelona, Spain) to measure the total traveled distance.
as §1

h5-HT1AR = biological target: T3, h5-HT1AR (Homo sapiens, UniProt P08908); assay: Radioligand binding, [3H]8-OH-DPAT displacement
T3 construct: purchased Perkin Elmer, Inc. (Waltham, MA, USA)
T3 sequence (P08908 1-422): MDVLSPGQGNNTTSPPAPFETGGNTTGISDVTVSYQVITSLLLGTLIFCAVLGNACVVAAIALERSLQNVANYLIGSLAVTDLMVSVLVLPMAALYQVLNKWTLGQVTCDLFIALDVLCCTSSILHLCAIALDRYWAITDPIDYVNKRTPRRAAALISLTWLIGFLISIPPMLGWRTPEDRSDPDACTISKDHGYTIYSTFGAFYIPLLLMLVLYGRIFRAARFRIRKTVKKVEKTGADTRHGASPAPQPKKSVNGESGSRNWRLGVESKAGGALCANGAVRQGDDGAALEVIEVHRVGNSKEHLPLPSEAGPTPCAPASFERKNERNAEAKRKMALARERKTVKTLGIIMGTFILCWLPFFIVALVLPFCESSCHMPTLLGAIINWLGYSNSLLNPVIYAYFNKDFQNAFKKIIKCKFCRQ
Protocol: as §2

[4] = 0.4 nM [3H]8-OH-DPAT, N ≥ 3, read-out: 5-HT1AR Ki ± SD

T2 sequence (P31645 whole entry): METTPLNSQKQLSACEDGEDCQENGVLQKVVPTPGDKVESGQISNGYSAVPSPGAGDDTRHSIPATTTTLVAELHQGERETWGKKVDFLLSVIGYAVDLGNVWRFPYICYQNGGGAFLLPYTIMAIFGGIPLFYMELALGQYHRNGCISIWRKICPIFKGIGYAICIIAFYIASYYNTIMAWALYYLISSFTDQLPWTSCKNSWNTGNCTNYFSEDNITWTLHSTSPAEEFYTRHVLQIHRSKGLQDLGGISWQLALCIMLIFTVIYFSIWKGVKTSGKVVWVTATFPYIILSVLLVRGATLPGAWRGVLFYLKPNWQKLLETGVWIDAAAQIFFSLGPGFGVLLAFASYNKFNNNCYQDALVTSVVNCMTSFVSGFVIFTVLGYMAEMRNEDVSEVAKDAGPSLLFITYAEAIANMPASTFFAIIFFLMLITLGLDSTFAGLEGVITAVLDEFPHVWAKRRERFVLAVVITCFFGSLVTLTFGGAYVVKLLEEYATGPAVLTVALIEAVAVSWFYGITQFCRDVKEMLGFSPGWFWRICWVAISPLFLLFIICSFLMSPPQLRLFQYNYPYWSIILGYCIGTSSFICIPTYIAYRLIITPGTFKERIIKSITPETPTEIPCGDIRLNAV
T1 sequence (P28223 whole entry): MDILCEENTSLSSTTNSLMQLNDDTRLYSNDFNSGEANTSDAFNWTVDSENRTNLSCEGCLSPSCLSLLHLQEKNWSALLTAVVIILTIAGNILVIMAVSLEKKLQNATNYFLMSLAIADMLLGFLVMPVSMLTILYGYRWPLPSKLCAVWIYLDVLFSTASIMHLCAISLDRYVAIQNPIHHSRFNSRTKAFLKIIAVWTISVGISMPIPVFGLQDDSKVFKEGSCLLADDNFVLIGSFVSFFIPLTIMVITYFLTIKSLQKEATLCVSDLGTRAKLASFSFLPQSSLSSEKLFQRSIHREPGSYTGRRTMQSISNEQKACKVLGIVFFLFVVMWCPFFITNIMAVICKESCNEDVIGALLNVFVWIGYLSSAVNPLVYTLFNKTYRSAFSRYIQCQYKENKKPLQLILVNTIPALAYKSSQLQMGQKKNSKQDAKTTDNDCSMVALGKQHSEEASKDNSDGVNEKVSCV

Compound | Change in body temperature ED50 [1] | Ki (h5-HT2AR) | HTR Emax (95% CI) [2] | HTR ED50 ([2]; 10 min after injection) | 5-HT releasing activity (SERT) | HLA (hypolocomotion) ED50 [3] | HLA (hypolocomotion) Emax (95% CI) [3] | Ki (h5-HT1AR; [4]) | ED50 ([1]; Mus musculus, ip, 1 h, read-out: Change in body temperature ED50) | ED50 ([2]; Mus musculus, ip, 10 min, 10 min after injection) | ED50 ([3]; Mus musculus, ip, 0.5 h, read-out: HLA (hypolocomotion) ED50) | Ki (h5-HT1AR) | 5-HT release at SERT (SERT)
C=CCN(CC=C)CCc1c[nH]c2ccc(OC)cc12 [5-MeO-DALT] | 13.6 mg/kg | 71.7 ± 14.8 nM | 10.4 (8.5–12.4) HTR events | 4.16 mg/kg | slight to none 5-HT releasing activity | 6.22 mg/kg | 73.11 (57.45–88.78) % reduction | 3.26 ± 0.39 nM | – | – | – | – | –
CCN(CC)CCc1c[nH]c2ccc(OC)cc12 [5-MeO-DET] | 7.18 mg/kg | 128 ± 4 nM | 9.73 (7.61–11.85) HTR events | 2.32 mg/kg | capable of evoking 5-HT release | 4.78 mg/kg | 63.56 (37.58–89.53) % reduction | 4.93 ± 0.62 nM | – | – | – | – | –
COc1ccc2[nH]cc(CCN(C(C)C)C(C)C)c2c1 [5-MeO-DIPT, 5-methoxy-N,N-diisopropyltryptamine] | – | – | 10.5 (8.5–12.5) HTR events | – | slight to none 5-HT releasing activity | – | 55.32 (38.20–72.44) % reduction | – | 14.8 mg/kg | 0.477 mg/kg | 4.52 mg/kg | 15.8 ± 1.3 nM | –
CCN(CCc1c[nH]c2ccc(OC)cc12)C(C)C [5-MeO-EIPT] | 15.0 mg/kg | 151 ± 26 nM | 9.27 (7.10–11.44) HTR events | 10.6 mg/kg | – | 4.82 mg/kg | 68.02 (54.57–81.46) % reduction | 18.4 ± 8.4 nM | – | – | – | – | < 10 % total cpm
CCN(C)CCc1c[nH]c2ccc(OC)cc12 [5-MeO-MET] | 4.76 mg/kg | 94.1 ± 16.7 nM | 28.4 (23.5–33.2) HTR events | 2.72 mg/kg | capable of evoking 5-HT release | 1.70 mg/kg | 66.79 (58.20–75.37) % reduction | 3.11 ± 0.51 nM | – | – | – | – | –
COc1ccc2[nH]cc(CCN(C)C(C)C)c2c1 [5-MeO-MIPT] | 14.8 mg/kg | 147 ± 32 nM | 14.19 (11.7–16.68) HTR events | 0.791 mg/kg | slight to none 5-HT releasing activity | 6.57 mg/kg | 82.78 (62.16–103.4) % reduction | 24.8 ± 7.6 nM | – | – | – | – | < 10 % total cpm
COc1ccc2[nH]cc(CCN3CCCC3)c2c1 [5-MeO-pyr-T] | 2.89 mg/kg | 373 ± 59 nM | 10.0 (6.9–13.1) HTR events | 7.29 mg/kg | capable of evoking 5-HT release | 1.60 mg/kg | 71.25 (60.71–81.79) % reduction | 0.577 ± 0.195 nM | – | – | – | – | –
